Measurements taken from patent publication US8039501B2, “Synephrine derivatives useful as anti-inflammatory agents” (Universiteit Gent, priority 2005, dated 2011).
Residues, ends and D or L forms follow the SMILES beside them. *: point of attachment. Cbz = O=C(OCc1ccccc1)*

Tests used:
MM1.S cell lines = experiment: Annexin V/PI assay in MM1.S cells; format: cell-based, human; conditions: positive control, FIG. 13
Description: 1. […] Procedure: • Human multiple myeloma cell lines L363, U266, MM1.S and MMR.1 are cultured in RPMI 1640 with Glutamax-I, supplemented with 10% FCS, 100 U/ml penicillin and 100 μg/ml streptomycin. Cells are counted and resuspended in fresh medium at a concentration of 1×10^6/ml. Next, 1 ml of cell suspension is transferred to 5 ml culture tubes in the presence of test compounds (DEX, CpdA, CpdA analogues: 10^−7 to 10^−4 M) or vehicle (EtOH) and incubated for 24 or 48 hours at 37° C. • Double-staining of the cells with PI and annexin V is performed according to the instructions of the Annexin V kit (BD Biosciences). • Double-stained cells are analyzed by flow cytometry. […] Graphs are represented as the ratio of early apoptotic cells versus late apoptotic cells (a) or as total % of living cells (b).

[1] = system: multiple myeloma cells U266; experiment: MTT test, cell viability of U266 cells; format: cell-based, human; conditions: 10^−4 M, 10% FCS, FIG. 3A; for cytotoxicity at 100 µM: Homo sapiens, U-266, read-out: Block of U266 cell viability / cell killing
Description: (§1) The MTT test is a standard assay addressing cell toxicity of a compound. It is based on the principle that after 3-4 hours of cell incubation with MTT (3-(4,5-dimethylthiazole-2-yl)-2,5-diphenyl tetrazolium bromide) so-called purple formazan crystals develop in living and early apoptotic cells. Dead cells don't produce formazan crystals.
(§2) Different cell lines were tested. Unless indicated differently, A549 human lung epithelial cells (derived from lung carcinoma) and L929sA murine fibroblast cells were cultured in DMEM with 10% FCS, 100 U/ml penicillin and 100 μg/ml streptomycin. Unless indicated differently, the human multiple myeloma cell lines L363, U266 and MM1.S were cultured in RPMI 1640 with Glutamax-I, supplemented with 10% FCS, 100 U/ml penicillin and 100 μg/ml streptomycin. Cells were seeded at 5000 cells/well (for adherent A549 and L929sA cells) or at 10000 cells/well (for the multiple myeloma lines in suspension) in 96 well plates. Cells were incubated in the presence of the respective synephrine compounds or vehicle (EtOH; for control test) in a final volume of 0.2 ml for 24 or 48 hours at 37° C. Subsequently, 20 μl of MTT solution (5 mg/ml in phosphate-buffered saline) was added to each well. After 4 hours incubation at 37° C., 80 μl of the extraction buffer (10% SDS, 0.01 M HCl) was added. After overnight incubation at room temperature, the optical densities at 590 nm were measured. Results are illustrated in FIGS. 2 to 6 and are expressed as percentage of viable cells as compared to vehicle-treated controls.
(§3) The MTT test was further extended to include alternative synephrine derivatives and a range of multiple myeloma cell lines for which the results are illustrated by FIGS. 3A, 3B and 4A. Human multiple myeloma cell lines L363, U266 and MM1.S were cultured in RPMI 1640 with Glutamax-I, supplemented with 10% FCS, 100 U/ml penicillin and 100 μg/ml streptomycin. Cells were seeded at 10000 cells/well in 96 well plates. Cells were incubated in the presence of test compounds or vehicle in a final volume of 0.2 ml for 24 or 48 hours at 37° C. The test compounds included in the test were the synephrine derivatives CpdA, Naphth, Benz and Isobut, and DEX as a comparative example. Subsequently, 20 μl of MTT solution (5 mg/ml in phosphate-buffered saline) was added to each well. After 4 hours incubation at 37° C., 80 μl of the extraction buffer (10% SDS, 0.01 M HCl) was added. After 48 hours incubation at room temperature, the optical densities at 590 nm were measured. Results are expressed as percentage of viable cells as compared to vehicle-treated controls.

L363 cell line = experiment: MTT test, cell viability of L363 cells; format: cell-based, human; conditions: 10% FCS, FIG. 3B; for Cell killing of L363 cells: 10^−5 M; for cytotoxicity at 100 µM: Homo sapiens, L-363, read-out: Block of L363 cell viability
Description: as §1, §2, §3

[2] = system: A549 human lung epithelial cells; experiment: MTT test, cell viability of A549 cells; format: cell-based
Description: as §1, §2
(§4) In a further MTT test, the activity of the synephrine derivatives on the inhibition of cell viability of non-immune cells was measured. […] Tests were performed for 24 hours and for 48 hours. The results are illustrated by FIGS. 5A and 5B for L929 cells, and by FIGS. 6A and 6B for A549 cells. It was observed that CpdA at 10^−5 M blocked cell viability of L929sA and A549 for not more than 10%.

MM1.S cell line = experiment: MTT test, cell viability of MM1.S cells; format: cell-based, human; conditions: 10% FCS, FIG. 4A
Description: as §1, §2, §3

[3] = system: pE-selectin-Luc (E-selectin promoter); experiment: pE-selectin-Luc reporter gene assay in TNF-induced L929sA cells; format: cell-based, mouse; conditions: indicated concentrations, from -2 hours for 8 hours; TNF 2000 IU/ml 6 hours; FIG. 1
Source text: L929sA mouse fibroblast cells were stably transfected with pE-selectine-Luc (also referred to as pELAM-luc) by the calcium phosphate precipitation procedure described by De Bosscher et al. in Proc. Natl. Acad. Sci. USA (1997) 94, 13504-13509. The co-transfected plasmid pPGKβGeobpA, conferring resistance to G418 and expressing constitutive β-galactosidase enzymatic activity, was used as an internal control. L929sA cells were transiently transfected by the DEAE-dextran transfection method described by De Bosscher et al. (cited supra).
Recombinant murine tumor necrosis factor (TNF) was produced according to a method standard in the art. Dexamethasone (hereinafter abbreviated as DEX) commercially available from Sigma, and 2-(4-acetoxyphenyl)-2-chloro-N-methyl-ethylammonium chloride (hereinafter abbreviated as compound A) was synthesized according to Louw et al. in Biochemical Pharmacology (1997) 53, 189-197). A stock solution was prepared in ethanol (for DEX) or DMSO (for both comparative compound A and for the compound of example 6 according to this invention, i.e. 1-[4-(benzoyloxy)phenyl]-2-[(tert-butoxy-carbonyl)-methylamino]ethyl-1H-imidazole-1-carboxylate), aliquoted and stored at −70° C.
Induction was performed in triplicate for each independent experiment, which was carried out at least twice. Induction with DEX, compound A, and for the compound of example 6 according to this invention at 1 μM, 10 μM or respectively any other indicated concentration were performed at −2 hours for a total of 8 hours, while TNF (2000 IU/ml) was added at time point zero and left on the cells for 6 hours. After induction, cells were lysed with a lysis buffer (commercially available from Tropix, Bedford, Massachussets) and samples were assayed according to the manufacturer's instructions (Promega Biotech).
In order to investigate whether the inhibitory effect of compound A or the compound of example 6 according to this invention is directed at the transcriptional level of NF-κB-driven genes, the NF-κB-dependent physiological promoter construct, pE-selectin-Luc stably integrated into L929sA cells, was tested. […] DEX-mediated and compound A-mediated inhibition of TNF-induced gene expression were used as controls (FIG. 1). In the appended figures, NI stands for non-induced (either in presence of solvent controls like ethanol or DMSO).

B-CLL cells = experiment: Annexin V/PI flow cytometric analysis of apoptosis in ex-vivo cultured B-CLL cells; format: cell-based, human; conditions: 24 hours
Description: Blood samples were obtained from B-CLL patients after informed consent according to institutional guidelines. CLL lymphocytes were isolated using Lymphoprep (Nycomed Pharma, Denmark) and re-suspended at a final concentration of 10−30×10^6 cells/ml in RPMI 1640 medium, supplemented with 10% heat-inactivated fetal bovine serum (FBS) (Greiner Bio-one, Wemmel, Belgium), 100 IU/ml penicillin, 100 μg/ml streptomycin, and 0.56 μg/mL fungizone (Gibco BRL, Merelbeke, Belgium). B-CLL cells were cultured in Dulbecco's Modified Eagle Medium (DMEM) (Gibco, Invitrogen Inc.) containing 10% FBS (Gibco, Invitrogen Inc.). For flow cytometric analysis of apoptosis, B-CLL cells were treated with the different compounds for 24 hours, 3×10^5 cells were removed from the culture medium, washed twice with cold PBS, and double stained with annexin V-fluorescein isothiocyanate (FITC) and propidium iodide (PI; Beckman Coulter, Miami, Fla.) in Annexin binding buffer, followed by analysis on a FC500PTM (Beckman Coulter, Nyon, Switzerland) flow cytometer. Flow cytometric data were analyzed using Cytomixs RXP software (Beckman Coulter, Nyon, Switzerland). To avoid non-specific fluorescence from dead cells, live cells were gated using forward and side scatter.
One of the early signs of apoptosis is the translocation of the membrane phospholipid phosphatidylserine from the cytoplasmic interface to the extracellular surface. Annexin V has a high affinity for the phospatidylserine-containing phospholipid bilayers. […] As the plasma membrane becomes increasingly permeable during the later stages of apoptosis, the DNA-binding dye PI can readily move across the cell membrane and bind to cellular DNA, providing a means to detect the loss of membrane integrity through mechanisms including necrosis. Three different cell populations can be observed in cells double-stained with AnnV-FITC and PI. […] Cells that stain with Ann V only are early apoptotic cells. And cells that stain with both AnnV and PI are late apoptotic/necrotic cells. The percentage of AnnV-positive B-CLL cells in the lymphocyte gate were measured by FACS and results were expressed as % apoptotic cells, i.e. sum of early apoptotic (AnnV+, PI−), and late apoptotic/dead cells (AnnV+, PI+). The percent of living cells was normalized to 100% living cells incubated in control medium with 0.1% EtOH. All measurements were made in duplicate and averaged.

[4] = MTT test, cell viability of A549 cells; format: cell-based, human; conditions: human, A549 lung epithelial (carcinoma) cells; 10^−5 M; 48 hours; FIG. 6B; read-out: Block of A549 cell viability
Description: as §1, §2, §4

[5] = MTT test, cell viability of L929sA fibroblasts; format: cell-based, murine; conditions: mouse, L929sA fibroblast cells; 10^−5 M; within 48 hours; FIG. 5B; read-out: Block of L929sA cell viability
Description: as §1, §2, §4

SMILES: CC(C)C[C@@H](C=O)NC(=O)[C@H](CC(C)C)NC(=O)[C@H](CC(C)C)NC(=O)OCc1ccccc1 [MG132, reference compound] (Cbz-Leu-Leu-Leu-aldehyde)
- Apoptosis (Annexin V/PI staining) (MM1.S cell lines): also mediates apoptosis

SMILES: CN(CC(OC(=O)n1ccnc1)c1ccc(OC(=O)c2cccc3ccccc23)cc1)C(=O)OC(C)(C)C (centres unmarked) [Naphth, 1-[4-(1-naphthoyloxy)phenyl]-2-[(tert-butyloxycarbonyl)(methyl)amino]ethyl 1H-imida-zole-1-carboxylate]
- Block of U266 cell viability / cell killing [1]: 70%
- Block of L363 cell viability (L363 cell line; 10^−4 M): 90%
- Cell killing of L363 cells (L363 cell line): 40%
- Block of A549 cell viability ([2]; 10^−4 M, 48 hours, FIG. 6B): 20%
- Block of A549 cell viability ([2]; 10^−5 M, 24 hours, FIG. 6A): about 10%
- Block of A549 cell viability ([2]; 10^−5 M, 48 hours, FIG. 6B): not more than 20%
- Inhibition of MM1.S cell viability (MM1.S cell line; 10^−4 M): almost completely
- Inhibition of MM1.S cell viability (MM1.S cell line; 10^−5 M): about 35%

SMILES: CC(C)C(=O)Oc1ccc(C(CN(C)C(=O)OC(C)(C)C)OC(=O)n2ccnc2)cc1 (centres unmarked) [Isobut, 1-[4-(isobutanoyloxy)phenyl]-2-[(tert-butoxycarbonyl)-methylamino]ethyl-1H-imidazole-1-carboxylate]
- cytotoxicity at 100 µM [1]: 80%
- Cell killing of L363 cells (L363 cell line): 25%
- cytotoxicity at 100 µM (L363 cell line; 10^−4 M): 80%
- Inhibition of MM1.S cell viability (MM1.S cell line; 10^−5 M): block cell viability completely
- Inhibition of TNF-induced gene expression (E-selectin gene induction) [3]: effectively inhibit TNF-induced E-selectin gene induction

SMILES: CCCCCC(=O)Oc1ccc(C(O)CN(C)C(=O)OC(C)(C)C)cc1 (centres unmarked) [example 6, 4-{2-[(tert-butoxycarbonyl)(methyl)amino]-1-hydroxyethyl}phenyl hexanoate]
- Inhibition of TNF-induced gene expression (E-selectin gene induction) [3]: observed in a dose-responsive manner

SMILES: O=C(O)CCCc1ccc(N(CCCl)CCCl)cc1 [Chlorambucil]
- % apoptotic cells, CLL patient 1 (B-CLL cells; 25 · 10^−7M): 51%
- % apoptotic cells, CLL patient 2 (B-CLL cells; 25 · 10^−7M): 46%

SMILES: CN(CC(OC(=O)n1ccnc1)c1ccc(OC(=O)c2ccccc2)cc1)C(=O)OC(C)(C)C (centres unmarked) [Benz, 1-[4-(benzoyloxy)phenyl]-2-[(tert-butoxycarbonyl)-methylamino]ethyl-1H-imidazole-1-carboxylate]
- cytotoxicity at 100 µM [1]: 90%
- Cell killing of L363 cells (L363 cell line): 40%
- cytotoxicity at 100 µM (L363 cell line; 10^−4 M): 90%
- cytotoxicity at 48 h [4]: 10%
- Block of A549 cell viability ([2]; 10^−5 M, 24 hours, FIG. 6A): not able to block cell viability
- Inhibition of MM1.S cell viability (MM1.S cell line; 10^−5 M): block cell viability completely
- Inhibition of TNF-induced gene expression (E-selectin gene induction) [3]: effectively inhibit TNF-induced E-selectin gene induction
- cytotoxicity at 48 h [5]: ≤ 20%

SMILES: C[C@H]1C[C@@H]2[C@H]([C@@H](O)C[C@@]3(C)[C@H]2CC[C@]3(O)C(=O)COC(=O)CCC(=O)O)[C@@]2(C)C=CC(=O)C=C12 [Solumedrol]
- % apoptotic cells, CLL patient 1 (B-CLL cells; 10^−7M): 60%
- % apoptotic cells, CLL patient 2 (B-CLL cells; 10^−7M): 34%

SMILES: Nc1nc(F)nc2c1ncn2[C@@H]1O[C@H](CO)[C@@H](O)[C@@H]1O [Fludarabine]
- % apoptotic cells, CLL patient 1 (B-CLL cells; 5 · 10^−6M): 56%
- % apoptotic cells, CLL patient 2 (B-CLL cells; 5 · 10^−6M): 63%
